Assay [1] has as its target T1, MAGL (Mus musculus (Mouse), UniProt O35678). Put plainly: Mouse brain proteomes from inhibitor treated mice (oral gavage, sacrificed 4 h after administration, ABPP analysis). The assay is classed as in vivo, mouse (C57Bl/6J). The following applies: 5 mg/kg oral gavage. In outline:
(§1)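 Compounds were given by oral gavage to wild-type C57Bl/6J mice in a vehicle such as PEG400/Ethanol/PBS (7/2/1). Animals were sacrificed 4 h after dosing, and brain proteomes were prepared and analyzed by established ABPP methods. Values are % inhibition at 5 mg/kg.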

For assay [2], the target named is T2, ABHD6 (Mus musculus (Mouse), UniProt Q8R2Y0). Put plainly: In vitro competitive activity-based protein profiling (mouse brain membrane fraction or cell lysates), ABHD6 band. It counts as biochemical. The following applies: mouse proteome; for inhibition at 1 µM: read-out: ABHD6 % Inh 1 μM (mouse); for IC50: competitive ABPP. In outline: (§2)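 Mouse proteome samples (brain membrane fraction or cell lysate, 1.0 mg/mL protein) were pretreated with varying inhibitor concentrations and subsequently probed with fluorophosphonate-rhodamine, each step lasting 30 min at 37° C. Labelled proteins were separated by SDS-PAGE, and band fluorescence was imaged and quantified.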

Assay [3] has as its target T2, ABHD6. Put plainly: Mouse brain proteomes from inhibitor treated mice (oral gavage, sacrificed 4 h after administration, ABPP analysis), ABHD6. It counts as in vivo, mouse (C57Bl/6J). The following applies: 5 mg/kg oral gavage. An outline of the steps:
as §1

Assay [4] deals with T3, FAAH (Mus musculus (Mouse), UniProt O08914). Description: In vitro competitive activity-based protein profiling (mouse brain membrane fraction or cell lysates), FAAH band. To be noted: mouse proteome; for inhibition at 1 µM: read-out: FAAH % Inh 1 μM (mouse); for IC50: competitive ABPP. It counts as biochemical. In outline:
as §2

The target of assay [5] is T1, MAGL. Description: In vitro competitive activity-based protein profiling (mouse brain membrane fraction or cell lysates), MAGL band. It counts as biochemical. The following applies: mouse proteome; for inhibition at 1 µM: read-out: MAGL % Inh 1 μM (mouse); for IC50: competitive ABPP. The method, then:
In Vitro Competitive Activity-Based Protein Profiling.
Proteomes (mouse brain membrane fraction or cell lysates) (50 μL, 1.0 mg/mL total protein concentration) were preincubated with varying concentrations of inhibitors at 37° C. After 30 min, FP—Rh (1.0 μL, 50 μM in DMSO) was added and the mixture was incubated for another 30 min at 37° C. Reactions were quenched with SDS loading buffer (50 μL-4×) and run on SDS-PAGE.

For assay [6], the target named is T3, FAAH. Put plainly: Mouse brain proteomes from inhibitor treated mice (oral gavage, sacrificed 4 h after administration, ABPP analysis), FAAH. To be noted: 5 mg/kg oral gavage. The assay is classed as in vivo, mouse (C57Bl/6J). An outline of the steps: as §1

The values that follow come from patent publication US10030020B2, “Spirocycle compounds and methods of making and using same” (Abide Therapeutics, Inc., priority 2016, dated 2018).

Each structure is given as a SMILES string.

As a reminder, the IC50 is the concentration that gives 50% inhibition.

T3 sequence (O08914 whole entry): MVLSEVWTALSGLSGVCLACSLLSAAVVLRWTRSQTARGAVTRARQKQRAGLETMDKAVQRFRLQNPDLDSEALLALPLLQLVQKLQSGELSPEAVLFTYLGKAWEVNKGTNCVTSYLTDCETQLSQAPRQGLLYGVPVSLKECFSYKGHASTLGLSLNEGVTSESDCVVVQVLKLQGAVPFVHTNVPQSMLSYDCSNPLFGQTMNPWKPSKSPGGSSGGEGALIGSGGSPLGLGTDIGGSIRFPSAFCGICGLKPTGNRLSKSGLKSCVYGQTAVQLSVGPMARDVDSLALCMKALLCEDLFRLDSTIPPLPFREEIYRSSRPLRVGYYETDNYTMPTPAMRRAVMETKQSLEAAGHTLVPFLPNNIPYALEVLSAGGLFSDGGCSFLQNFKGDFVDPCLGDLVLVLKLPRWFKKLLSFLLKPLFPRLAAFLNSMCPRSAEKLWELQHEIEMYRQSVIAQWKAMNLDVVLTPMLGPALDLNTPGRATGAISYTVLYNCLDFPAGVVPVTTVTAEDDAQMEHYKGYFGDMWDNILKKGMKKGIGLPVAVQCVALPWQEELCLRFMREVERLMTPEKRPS
T2 sequence (Q8R2Y0 whole entry): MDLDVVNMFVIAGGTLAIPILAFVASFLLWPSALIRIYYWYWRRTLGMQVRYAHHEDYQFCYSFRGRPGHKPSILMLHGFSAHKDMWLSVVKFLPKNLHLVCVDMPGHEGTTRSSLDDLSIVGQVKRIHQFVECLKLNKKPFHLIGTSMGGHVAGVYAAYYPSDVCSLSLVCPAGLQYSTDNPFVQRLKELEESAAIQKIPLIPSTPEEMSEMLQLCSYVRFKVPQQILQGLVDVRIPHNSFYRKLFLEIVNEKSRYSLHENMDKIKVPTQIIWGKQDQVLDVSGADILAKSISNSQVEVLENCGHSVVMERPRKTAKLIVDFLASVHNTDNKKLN
T1 sequence (O35678 whole entry): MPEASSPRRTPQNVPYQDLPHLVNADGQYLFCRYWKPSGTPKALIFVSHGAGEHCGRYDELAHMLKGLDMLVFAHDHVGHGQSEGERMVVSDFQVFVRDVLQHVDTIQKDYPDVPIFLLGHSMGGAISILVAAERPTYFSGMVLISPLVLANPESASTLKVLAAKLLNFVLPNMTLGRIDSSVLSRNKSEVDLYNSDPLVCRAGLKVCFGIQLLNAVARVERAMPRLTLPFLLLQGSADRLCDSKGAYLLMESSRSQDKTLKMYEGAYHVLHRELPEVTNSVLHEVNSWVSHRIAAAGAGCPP

As for `O=C(OC(C(F)(F)F)C(F)(F)F)N1CCC2(CCCN2Cc2ccc(C(F)(F)F)cc2N2CCC(F)CC2)CC1` [Example 91, 1,1,1,3,3,3-Hexafluoropropan-2-yl 1-(2-(4-fluoropiperidin-1-yl)-4-(trifluoromethyl)benzyl)-1,8-diazaspiro[4.5]decane-8-carboxylate], the “MAGL % Inh 5 mg/kg (mouse)” value in assay [1] was “### (### is ≥75%)”. Besides, the inhibition at 1 µM is less than 25% in assay [2], less than 25% in assay [4] and more than 75% in assay [5]. Besides, the IC50 in assay [2] was more than 1000 nM; in assay [4] it was more than 1000 nM; in assay [5], less than 100 nM. Moreover, in assay [3], the “ABHD6 % Inh 5 mg/kg (mouse)” value is reported as “# (# is <25%)”. Further, in assay [6], the “FAAH % Inh 5 mg/kg (mouse)” value was “# (# is <25%)”.

Consider `O=C(OC(C(F)(F)F)C(F)(F)F)N1CCC2(CCN(Cc3cccc(Cl)c3N3CCC(F)CC3)C2)CC1` [Example 65, 1,1,1,3,3,3-Hexafluoropropan-2-yl 2-(3-chloro-2-(4-fluoropiperidin-1-yl)benzyl)-2,8-diazaspiro[4.5]decane-8-carboxylate], for which, in assay [1], the “MAGL % Inh 5 mg/kg (mouse)” value is “## (## is equal to or greater than 25% but less than 75%)”. For the same molecule, the inhibition at 1 µM in assay [2] is 25 to 75%; in assay [4] it was less than 25%; in assay [5], more than 75%. For the same molecule, the IC50 is more than 1000 nM in assay [2], more than 1000 nM in assay [4] and less than 100 nM in assay [5]. Besides, in assay [3], the “ABHD6 % Inh 5 mg/kg (mouse)” value was “## (## is equal to or greater than 25% but less than 75%)”. The “FAAH % Inh 5 mg/kg (mouse)” value in assay [6] is “# (# is <25%)”.

With `CC1(C)CC2(CCN(C(=O)OC(C(F)(F)F)C(F)(F)F)CC2)CN1Cc1ccc(C(F)(F)F)cc1N1CCOCC1` [Example 51, 1,1,1,3,3,3-Hexafluoropropan-2-yl 3,3-dimethyl-2-(2-morpholino-4-(trifluoromethyl)benzyl)-2,8-diazaspiro[4.5]decane-8-carboxylate], the “MAGL % Inh 5 mg/kg (mouse)” value in assay [1] is on record as “## (## is equal to or greater than 25% but less than 75%)”. Further, the inhibition at 1 µM is less than 25% in assay [2], less than 25% in assay [4] and more than 75% in assay [5]. The values for the IC50 in assay [2], in assay [4] and in assay [5] were more than 1000 nM, more than 1000 nM and less than 100 nM, respectively. The “ABHD6 % Inh 5 mg/kg (mouse)” value in assay [3] was “# (# is <25%)”. Besides, the “FAAH % Inh 5 mg/kg (mouse)” value in assay [6] is “# (# is <25%)”.

`CC(=O)NC1CCN(c2cc(C(F)(F)F)ccc2CN2CCCC23CCN(C(=O)OC(C(F)(F)F)C(F)(F)F)CC3)CC1` [Example 93, 1,1,1,3,3,3-Hexafluoropropan-2-yl 1-(2-(4-acetamidopiperidin-1-yl)-4-(trifluoromethyl)benzyl)-1,8-diazaspiro[4.5]decane-8-carboxylate]: the “MAGL % Inh 5 mg/kg (mouse)” value in assay [1] is “### (### is ≥75%)”. The inhibition at 1 µM was less than 25% in assay [2], less than 25% in assay [4] and more than 75% in assay [5]. The IC50 in assay [2] is more than 1000 nM; in assay [4], more than 1000 nM; in assay [5], less than 100 nM. Besides, the “ABHD6 % Inh 5 mg/kg (mouse)” value in assay [3] is listed as “# (# is <25%)”. Also, the “FAAH % Inh 5 mg/kg (mouse)” value in assay [6] is listed as “# (# is <25%)”.

Regarding `CCN1CCCc2cccc(CN3CCC4(CCN(C(=O)OC(C(F)(F)F)C(F)(F)F)CC4)C3)c21` [Example 71, 1,1,1,3,3,3-Hexafluoropropan-2-yl 2-((1-ethyl-1,2,3,4-tetrahydroquinolin-8-yl)methyl)-2,8-diazaspiro[4.5]decane-8-carboxylate], in assay [1], the “MAGL % Inh 5 mg/kg (mouse)” value is “### (### is ≥75%)”. The values for the inhibition at 1 µM in assay [2], in assay [4] and in assay [5] were 25 to 75%, less than 25% and more than 75%, respectively. Besides, the IC50 is more than 1000 nM in assay [2], more than 1000 nM in assay [4] and less than 100 nM in assay [5]. The “ABHD6 % Inh 5 mg/kg (mouse)” value in assay [3] is given as “## (## is equal to or greater than 25% but less than 75%)”. In addition, the “FAAH % Inh 5 mg/kg (mouse)” value in assay [6] is recorded as “# (# is <25%)”.

In the case of `O=C(OC(C(F)(F)F)C(F)(F)F)N1CCC2(CCCN2Cc2cc(Oc3cccnc3)cc(C(F)(F)F)c2)CC1` [Example 174, 1,1,1,3,3,3-Hexafluoropropan-2-yl 1-(3-(pyridin-3-yloxy)-5-(trifluoromethyl)benzyl)-1,8-diazaspiro[4.5]decane-8-carboxylate], the “MAGL % Inh 5 mg/kg (mouse)” value in assay [1] was “## (## is equal to or greater than 25% but less than 75%)”. Further, the inhibition at 1 µM in assay [2] is 25 to 75%; in assay [4], less than 25%; in assay [5] it was more than 75%. Further, the IC50 is more than 1000 nM in assay [2], more than 1000 nM in assay [4] and less than 100 nM in assay [5]. The “ABHD6 % Inh 5 mg/kg (mouse)” value in assay [3] was “# (# is <25%)”. Besides, the “FAAH % Inh 5 mg/kg (mouse)” value in assay [6] is given as “# (# is <25%)”.

`O=C(OC(C(F)(F)F)C(F)(F)F)N1CCC2(CCCN2Cc2ccc(Cl)cc2OCCF)CC1` [Example 30, 1,1,1,3,3,3-Hexafluoropropan-2-yl 1-(4-chloro-2-(2-fluoroethoxy)benzyl)-1,8-diazaspiro[4.5]decane-8-carboxylate]: the “MAGL % Inh 5 mg/kg (mouse)” value in assay [1] is “### (### is ≥75%)”. Further, the inhibition at 1 µM was less than 25% in assay [2], less than 25% in assay [4] and more than 75% in assay [5]. Besides, the IC50 in assay [2] was more than 1000 nM; in assay [4], more than 1000 nM; in assay [5], less than 100 nM. Moreover, the “ABHD6 % Inh 5 mg/kg (mouse)” value in assay [3] was “# (# is <25%)”. Also, the “FAAH % Inh 5 mg/kg (mouse)” value in assay [6] was “# (# is <25%)”.

As to `CC(=O)N1CCN(c2cc(C(F)(F)F)ccc2CN2CCCC23CCN(C(=O)OC(C(F)(F)F)C(F)(F)F)CC3)CC1` [Example 88, 1,1,1,3,3,3-Hexafluoropropan-2-yl 1-(2-(4-acetylpiperazin-1-yl)-4-(trifluoromethyl)benzyl)-1,8-diazaspiro[4.5]decane-8-carboxylate], the “MAGL % Inh 5 mg/kg (mouse)” value in assay [1] is “## (## is equal to or greater than 25% but less than 75%)”. The values for the inhibition at 1 µM in assay [2], in assay [4] and in assay [5] were less than 25%, less than 25% and more than 75%, respectively. In addition, the IC50 in assay [2] is more than 1000 nM; in assay [4], more than 1000 nM; in assay [5] it was less than 100 nM. Also, in assay [3], the “ABHD6 % Inh 5 mg/kg (mouse)” value is “# (# is <25%)”. The “FAAH % Inh 5 mg/kg (mouse)” value in assay [6] is on record as “# (# is <25%)”.

`CC1(C)CC2(CCN(C(=O)OC(C(F)(F)F)C(F)(F)F)CC2)CN1Cc1ccc(C(F)(F)F)cc1N1CCC2(CCOCC2)C1` [Example 52, 1,1,1,3,3,3-Hexafluoropropan-2-yl 2-(2-(8-oxa-2-azaspiro[4.5]decan-2-yl)-4-(trifluoromethyl)benzyl)-3,3-dimethyl-2,8-diazaspiro[4.5]decane-8-carboxylate]: the “MAGL % Inh 5 mg/kg (mouse)” value in assay [1] is on record as “# (# is <25%)”. For the same molecule, the inhibition at 1 µM is less than 25% in assay [2], less than 25% in assay [4] and more than 75% in assay [5]. Besides, the IC50 was more than 1000 nM in assay [2], more than 1000 nM in assay [4] and less than 100 nM in assay [5]. For the same molecule, the “ABHD6 % Inh 5 mg/kg (mouse)” value in assay [3] is recorded as “# (# is <25%)”. Also, the “FAAH % Inh 5 mg/kg (mouse)” value in assay [6] is listed as “# (# is <25%)”.
